Assay results from the supplement of paper PMC8671470.

Columns and labels:
Conditions in all cases: 72 h
HL-60 [1] = assay: area under dose-response curve (viability, 1 nM-10 uM) (fraction (0-1)); higher = more sensitive
Method in brief: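 For each screen, HL-60 cells in RPMI 1640 with 10% FBS carried either DMSO or 100 nM of one of three metabolic inhibitors while the full library was applied at five tenfold concentrations, 1–10,000 nM, in duplicate. Plates were 384-well and were kept 72 h at 37 °C, 5% CO2. Viability, measured by CellTiter-Glo, was normalised to wells with DMSO and with 10 μM proteasome inhibitor. Where area under the curve appears, it was fitted by four-parameter log-logistic models in drc and PharmacoGx.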

MOLM-13 [2] = tested on: MOLM-13
Method in brief: (§1)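 Each of fifteen myeloid leukaemia cell lines was seeded in RPMI 1640 at a density titrated to its linear growth range. The cells were incubated for 72 h at 37 °C and 5% CO2 with compounds at five tenfold doses from 1 to 10,000 nM, in duplicate. After ATP luminescence was normalised to vehicle and to a positive control at 10 µM, four-parameter log-logistic curves were fitted. These curves gave the IC50.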

HL-60 [3] = tested on: HL-60
Method in brief: as §1

MV4-11 [4] = tested on: MV4-11
Method in brief: as §1

Mono-Mac-6 [5] = tested on: Mono-Mac-6
Method in brief: as §1

KU-812 [6] = tested on: KU-812
Method in brief: as §1

KCL-22 [7] = tested on: KCL-22
Method in brief: as §1

BV-173 [8] = tested on: BV-173
Method in brief: as §1

KG-1 [9] = tested on: KG-1
Method in brief: as §1

ML-2 [10] = tested on: ML-2
Method in brief: as §1

THP-1 [11] = tested on: THP-1
Method in brief: as §1

NOMO-1 [12] = tested on: NOMO-1
Method in brief: as §1

HEL [13] = tested on: HEL
Method in brief: as §1

K-562 = tested on: K-562
Method in brief: as §1

SHI-1 [14] = tested on: SHI-1
Method in brief: as §1

LAMA-84 [15] = tested on: LAMA-84
Method in brief: as §1

MOLM-13 [16] = assay: cell viability (% survival relative to DMSO control, bortezomib = 0%); higher = less cytotoxic
Method in brief: (§2)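 Percent survival figures are means of duplicate wells. They were obtained by CellTiter-Glo luminescence after 10 AML and 5 CML cell lines spent 72 h at 37 °C with 5% CO2 in 384-well plates with compounds at 1, 10, 100, 1000 or 10000 nM. Vehicle was set to 100% and a 10 µM positive control to 0%.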

HL-60 [17] = assay: as above
Method in brief: as §2

MV4-11 [18] = assay: as above
Method in brief: as §2

Mono-Mac-6 [19] = assay: as above
Method in brief: as §2

KU-812 [20] = assay: as above
Method in brief: as §2

KCL-22 [21] = assay: as above
Method in brief: as §2

BV-173 [22] = assay: as above
Method in brief: as §2

KG-1 [23] = assay: as above
Method in brief: as §2

ML-2 [24] = assay: as above
Method in brief: as §2

THP-1 [25] = assay: as above
Method in brief: as §2

NOMO-1 [26] = assay: as above
Method in brief: as §2

HEL [27] = assay: as above
Method in brief: as §2

SHI-1 [28] = assay: as above
Method in brief: as §2

LAMA-84 [29] = assay: as above
Method in brief: as §2

C=C(C)[C@H]1Cc2c(ccc3c2O[C@@H]2COc4cc(OC)c(OC)cc4[C@@H]2C3=O)O1 [Rotenone]
Conditions	area under dose-response curve, co-treatment: AZD3965 100 nM	area under dose-response curve, co-treatment: DMSO vehicle	area under dose-response curve, co-treatment: GSK2194069 100 nM	area under dose-response curve, co-treatment: pictilisib 100 nM	cell viability, 1 nM [%]	cell viability, 10 nM [%]	cell viability, 100 nM [%]	cell viability, 1000 nM [%]	cell viability, 10000 nM [%]
BV-173 [22]	–	–	–	–	106	77	49.9	1.45	0.515
HEL [27]	–	–	–	–	99.4	92	63.2	12.3	1.89
HL-60 [1]	0.137	0.319	0.289	0.256	–	–	–	–	–
HL-60 [17]	–	–	–	–	97.1	79.3	82.1	0.525	3.28
KCL-22 [21]	–	–	–	–	97.8	103	81.7	0.654	1.21
KG-1 [23]	–	–	–	–	93.6	83.7	43.7	11.5	11.6
KU-812 [20]	–	–	–	–	87.9	65.9	16.6	3.5	2.89
LAMA-84 [29]	–	–	–	–	101	87.5	51.4	18.3	14.6
ML-2 [24]	–	–	–	–	94.4	94.1	97.1	1.51	3.18
MOLM-13 [16]	–	–	–	–	103	77.8	67.2	2.3	0.733
MV4-11 [18]	–	–	–	–	97.2	70	58.4	0.45	0.258
Mono-Mac-6 [19]	–	–	–	–	94.1	96.4	76.7	9.03	2.24
NOMO-1 [26]	–	–	–	–	93.9	109	92	39.8	8.45
SHI-1 [28]	–	–	–	–	96.3	93.4	73.7	4.23	5.24
THP-1 [25]	–	–	–	–	98.9	104	76.2	37.6	24.5

Conditions	IC50 (cell viability) [µM]
BV-173 [8]	0.08
HEL [13]	0.168
HL-60 [3]	0.269
K-562	0.0407
KCL-22 [7]	0.206
KG-1 [9]	0.0684
KU-812 [6]	0.0232
LAMA-84 [15]	0.0744
ML-2 [10]	0.322
MOLM-13 [2]	0.176
MV4-11 [4]	0.156
Mono-Mac-6 [5]	0.225
NOMO-1 [12]	0.644
SHI-1 [14]	0.179
THP-1 [11]	0.268

CC(C)c1onc(-c2c(Cl)cccc2Cl)c1COc1ccc(/C=C/c2cccc(C(=O)O)c2)c(Cl)c1 [GW4064]
Conditions	area under dose-response curve, co-treatment: AZD3965 100 nM	area under dose-response curve, co-treatment: DMSO vehicle	area under dose-response curve, co-treatment: pictilisib 100 nM	cell viability, 1 nM [%]	cell viability, 10 nM [%]	cell viability, 100 nM [%]	cell viability, 1000 nM [%]	cell viability, 10000 nM [%]
BV-173 [22]	–	–	–	111	96.2	92.3	87.7	37.4
HEL [27]	–	–	–	85.7	87.2	86.8	87	66.7
HL-60 [1]	< 0.0301	< 0.0301	< 0.0301	–	–	–	–	–
HL-60 [17]	–	–	–	115	93.8	89.7	109	51.5
KCL-22 [21]	–	–	–	91.5	93.8	96	85.6	31.7
KG-1 [23]	–	–	–	85.6	81.5	95.8	76.8	51.2
KU-812 [20]	–	–	–	96.8	99.7	90.7	85.1	76
LAMA-84 [29]	–	–	–	105	103	94.2	85.3	43.4
ML-2 [24]	–	–	–	95.6	86.2	84	86.2	68.5
MOLM-13 [16]	–	–	–	147	108	93.8	86.7	-0.111
MV4-11 [18]	–	–	–	110	107	78.6	68.2	6.8
Mono-Mac-6 [19]	–	–	–	104	87.6	95.9	86.7	67.7
NOMO-1 [26]	–	–	–	102	99.3	94	95.8	89.5
SHI-1 [28]	–	–	–	110	99.3	101	95.9	53
THP-1 [25]	–	–	–	88.8	92.3	91.5	90.5	54.6

Conditions	IC50 (cell viability) [µM]
BV-173 [8]	6.11
HEL [13]	> 10
HL-60 [3]	> 10
K-562	6.26
KCL-22 [7]	3.6
KG-1 [9]	8.29
KU-812 [6]	> 10
LAMA-84 [15]	4.27
ML-2 [10]	> 10
MOLM-13 [2]	2.34
MV4-11 [4]	1.6
Mono-Mac-6 [5]	> 10
NOMO-1 [12]	> 10
SHI-1 [14]	> 10
THP-1 [11]	> 10

O=C(NNc1ccccc1)c1ccncc1 [PluriSln 1]
Conditions	area under dose-response curve, co-treatment: AZD3965 100 nM	area under dose-response curve, co-treatment: DMSO vehicle	area under dose-response curve, co-treatment: GSK2194069 100 nM	area under dose-response curve, co-treatment: pictilisib 100 nM	cell viability, 1 nM [%]	cell viability, 10 nM [%]	cell viability, 100 nM [%]	cell viability, 1000 nM [%]	cell viability, 10000 nM [%]
BV-173 [22]	–	–	–	–	86	93.5	97	104	82.6
HEL [27]	–	–	–	–	95.1	99.2	96.8	105	78.1
HL-60 [1]	0.0541	0.0377	< 0.0301	< 0.0301	–	–	–	–	–
HL-60 [17]	–	–	–	–	102	94.1	90.5	109	20.7
KCL-22 [21]	–	–	–	–	89.9	102	99.7	110	41.5
KG-1 [23]	–	–	–	–	88.5	104	102	98.4	62.8
KU-812 [20]	–	–	–	–	93.3	93.8	93.2	102	92.5
LAMA-84 [29]	–	–	–	–	88.4	99.4	92.1	106	39.9
ML-2 [24]	–	–	–	–	93.3	97.6	92.8	103	81
MOLM-13 [16]	–	–	–	–	80.5	92	96.7	87.1	25.4
MV4-11 [18]	–	–	–	–	92.1	99.2	99.3	109	89.4
Mono-Mac-6 [19]	–	–	–	–	106	103	104	110	87.2
NOMO-1 [26]	–	–	–	–	91	101	91.8	106	89.6
SHI-1 [28]	–	–	–	–	91.5	95.5	93	105	92.6
THP-1 [25]	–	–	–	–	97.2	97.1	100	108	95.4

Conditions	IC50 (cell viability) [µM]
BV-173 [8]	> 10
HEL [13]	> 10
HL-60 [3]	5.48
K-562	9.7
KCL-22 [7]	8.52
KG-1 [9]	> 10
KU-812 [6]	> 10
LAMA-84 [15]	8.48
ML-2 [10]	> 10
MOLM-13 [2]	5.72
MV4-11 [4]	> 10
Mono-Mac-6 [5]	> 10
NOMO-1 [12]	> 10
SHI-1 [14]	> 10
THP-1 [11]	> 10
